Legend:
proMMP9 = biological target: T1, proMMP9 (Homo sapiens, UniProt P14780); assay: Activation of proMMP9 by human fetal lung fibroblast (HFL-1) cultures (Western blot); assay type: cell-based; details: for Signal of 80 kD band (INT*mm^2): pAb-1246
T1 construct: endogenous in cells; host or cells: HFL-1 (ATCC CCL-153), TNFα and neutrophil elastase added
Method: Compound-α was assessed additionally for ability to block the maturation of proMMP9 to active MMP9 in cultures of human fetal lung fibroblasts (HFL-1, American Type Culture Collection #CCL-153). Unlike rat synoviocytes, HFL-1 cells were unable to process proMMP9 to the active form without addition of neutrophil elastase. […] Rather, the function of elastase in this assay may be to inactivate tissue inhibitors of matrix metalloproteinases (TIMPs) that repress endogenous pathways of MMP9 activation (Am J Respir Crit Care Med; 1999; 159:1138-46).
HLF-1 were maintained in monolayer culture in DMEM with 10% FCS and were used between passage numbers 5-15. HLF-1 were embedded in collagen gels as described for rat SCW synoviocytes (vida supra). Half mL gels containing 0.4 million cells were dislodged into wells of 12 well Costar plates containing 1 mL/well of DMEM adjusted to contain 0.05% BSA and 100 ng/mL human TNFα (R&D Systems Cat #210-TA/CF). After overnight culture (37° C. and 5% CO2) wells were adjusted to contain an additional 0.5 mL of DMEM containing 0.05% BSA and with or without 13.2 μM Compound-α (final concentration was 3.3 μM Compound-α). Next, cultures were adjusted to contain 30 nM human elastase (Innovative Research). The plates were cultured an additional 72 hrs, at which time MMP9 secreted into the conditioned media was bound to gelatin-sepharose and evaluated by Western blot analysis as described for the rat synoviocyte cultures (vida supra). mAb-51/82 detected three forms of MMP9 in HFL-1 cultures.
A second experiment was performed to determine if the 80 kD form was mature active MMP9 and to determine the potency of Compound-α as an inhibitor of MMP9 maturation in this assay. HFL-1 cells embedded in collagen gels were cultured as described above in the presence of TNFα overnight and the cultures were then adjusted to contain 30 nM elastase and graded concentrations of Compound-α for an additional 72 hrs at which time MMP9 secreted into the conditioned media was bound to gelatin-sepharose and evaluated by Western blot analysis for active MMP9 using pAb-1246 raised against the N-terminal neoepitope of active MMP9 (Table 5). In the absence of Compound-α, pAb-1246 readily detected MMP9 with an electrophoretic mobility of approximately 80 kD. […] Inhibition occurred over a dose range with an IC50 of approximately 0.3 μM Compound-α.

MMP9 = biological target: T2, MMP9 (Rattus norvegicus, UniProt P50282); assay: Western blot of pro and active MMP9 in ankles of rats with SCW-induced arthritis; assay type: in vivo; details: Day 26, four hours after AM dose; for Abundance of proMMP9 in ankles: mAb-L51/82, FIG. 3A
T2 construct: Pro and active MMP9 were abundantly present in ankles of SCW-induced vehicle-treated rats; from tissue; host or cells: ankle (tibia-tarsus joint) homogenate, female Lewis rats
Method: Hind-limbs were skinned, severed just above the tibia-tarsus joint and below the metatarsals, and the tibia-tarsus joints (ankles) were weighed, snap frozen and pulverized on dry ice using a hammer and anvil. The pulverized tissue was suspended in 3 volumes (w:v) of ice-cold homogenization buffer containing 50 mM Tris pH 7.5, 150 mM NaCl, 5 mM EDTA, 1% Triton X100, 0.05% Brij 30, 10% dimethylsulfoxide and Complete EDTA-free Protease Inhibitor Cocktail (Roche Diagnostics). The suspended tissue was homogenized sequentially with a Kinematica AG Polytron and a Dounce homogenizer. Homogenates were centrifuged at 16,000×g for 10 min at 4° C. and the soluble fractions were saved. Dimethylsulfoxide was removed from a portion of each soluble fraction using PD MiniTrap™ G-25 desalting columns (GE Healthcare). Homogenates (0.25 mL), free of DMSO, were diluted with an equal volume of binding buffer (i.e., homogenization buffer without dimethylsufoxide) and adjusted to contain 50 μL of a 50% slurry of gelatin-conjugated sepharose. Following 2 hours of rotation at 4° C. the beads were washed twice in binding buffer and eluted in 100 μL 2×-reducing Laemmli buffer with heating to 95° C. for 5 minutes. Eluates (20 μL) were resolved on 4-12% NuPAGE gels, transferred to 0.45 μm pore-sized nitrocellose and immunoblotted for detection of proMMP9, active MMP9, and other processed forms using mAb-L51/82 and pAb-1246 as described above for detection of MMP9 forms in synoviocyte and HFL-1 cell conditioned media.
Rats in the study reported in Tables 4 and 5 were sacrificed on Day 26 four hours after the AM dose. Ankles harvested from the right-hind-limbs were processed by the method described above. Pro and active MMP9 were abundantly present in ankles of SCW-induced vehicle-treated rats (FIGS. 3A and 3B, lanes 1-3).

[1] = 3.3 μM, 30 nM elastase, final 72 hrs, mAb-L51/82

T1 sequence (P14780 20-707 limits assumed): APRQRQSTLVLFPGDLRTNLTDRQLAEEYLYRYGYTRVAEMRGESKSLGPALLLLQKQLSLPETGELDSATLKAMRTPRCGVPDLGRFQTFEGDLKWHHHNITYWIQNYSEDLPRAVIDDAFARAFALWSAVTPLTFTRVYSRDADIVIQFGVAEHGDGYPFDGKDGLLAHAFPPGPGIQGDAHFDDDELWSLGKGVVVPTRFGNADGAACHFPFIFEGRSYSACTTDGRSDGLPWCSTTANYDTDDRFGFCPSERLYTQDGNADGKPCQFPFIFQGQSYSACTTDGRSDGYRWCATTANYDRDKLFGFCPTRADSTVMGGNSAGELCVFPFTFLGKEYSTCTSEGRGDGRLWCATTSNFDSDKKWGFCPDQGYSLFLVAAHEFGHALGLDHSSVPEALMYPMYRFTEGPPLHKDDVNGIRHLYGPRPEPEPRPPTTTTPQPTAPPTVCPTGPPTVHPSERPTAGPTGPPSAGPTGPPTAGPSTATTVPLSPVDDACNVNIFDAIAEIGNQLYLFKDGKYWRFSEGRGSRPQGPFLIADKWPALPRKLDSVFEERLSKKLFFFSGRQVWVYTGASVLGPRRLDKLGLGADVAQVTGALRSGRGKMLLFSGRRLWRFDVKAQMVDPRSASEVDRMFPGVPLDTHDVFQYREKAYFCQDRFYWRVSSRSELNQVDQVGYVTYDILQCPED
T2 sequence (P50282 108-708): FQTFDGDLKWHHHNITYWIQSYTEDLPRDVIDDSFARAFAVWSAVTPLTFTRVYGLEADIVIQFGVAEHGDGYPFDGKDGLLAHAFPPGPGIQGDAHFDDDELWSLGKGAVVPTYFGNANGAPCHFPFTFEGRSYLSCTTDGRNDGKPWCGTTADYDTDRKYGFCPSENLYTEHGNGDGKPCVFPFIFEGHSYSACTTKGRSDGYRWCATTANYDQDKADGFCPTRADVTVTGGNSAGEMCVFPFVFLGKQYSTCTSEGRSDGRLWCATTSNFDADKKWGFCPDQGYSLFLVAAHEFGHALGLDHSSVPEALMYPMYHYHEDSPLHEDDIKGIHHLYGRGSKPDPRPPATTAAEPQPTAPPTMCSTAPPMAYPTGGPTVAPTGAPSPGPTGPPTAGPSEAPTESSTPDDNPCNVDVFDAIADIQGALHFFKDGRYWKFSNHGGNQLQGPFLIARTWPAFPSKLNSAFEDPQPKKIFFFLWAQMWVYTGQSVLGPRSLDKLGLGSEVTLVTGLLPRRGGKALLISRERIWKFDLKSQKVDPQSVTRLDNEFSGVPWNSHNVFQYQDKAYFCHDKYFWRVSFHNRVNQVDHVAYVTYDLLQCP

Signal of 80 kD band (INT*mm^2) (proMMP9; 0.12 μM, 30 nM elastase, final 72 hrs): 168211 INT*mm^2 | Signal of 80 kD band (INT*mm^2) (proMMP9; 0.37 μM, 30 nM elastase, final 72 hrs): 45996 INT*mm^2 | Signal of 80 kD band (INT*mm^2) (proMMP9; 1.1 μM, 30 nM elastase, final 72 hrs): 1747 INT*mm^2 | Percent of total signal, 80 kD (proMMP9; [1]): 7% | Percent of total signal, 86 kD (proMMP9; [1]): 47% | Percent of total signal, 100 kD (proMMP9; [1]): 46% | Signal (INT*mm^2), 80 kD (proMMP9; [1]): 6092 INT*mm^2 | Signal (INT*mm^2), 86 kD (proMMP9; [1]): 43147 INT*mm^2 | Signal (INT*mm^2), 100 kD (proMMP9; [1]): 42107 INT*mm^2 | Signal (INT*mm^2), Total (proMMP9; [1]): 91346 INT*mm^2 | Signal of 80 kD band (INT*mm^2) (proMMP9; 3.3 μM, 30 nM elastase, final 72 hrs): 152 INT*mm^2 | Signal of 80 kD band (INT*mm^2) (proMMP9; 10 μM, 30 nM elastase, final 72 hrs): 0 INT*mm^2 | Abundance of proMMP9 in ankles (MMP9): did not reduce the abundance of proMMP9 | Abundance of proMMP9 in ankles (MMP9; listed as Compound a): did not reduce the abundance of proMMP-9
Structure (SMILES): Cc1nc(C)c(-c2csc(Nc3cc(S(N)(=O)=O)ccc3OC(C)C)n2)s1 [Compound-α, 3-(2′,4′-Dimethyl-[4,5′]bithiazolyl-2-ylamino)-4-isopropoxy-benzenesulfonamide.HBr]
Processing of MMP9 forms by HFL-1 cells (proMMP9; 3.3 μM, mAb-L51/82): the formation of the 80 kD form was suppressed | Active 80 kD form of MMP9 in ankles (MMP9; pAb-1246 and mAb-L51/82, FIG. 3): notable reduction in the active 80 kD form of MMP9
